# Active and inactive are the calls of the source. No cut-off for these calls is given here.
# What was measured:
# [1] = target: T1, Guanine nucleotide-binding protein G(q) subunit alpha (Homo sapiens, UniProt P50148); test: Agonist activity at RLucII-tagged Galpha-q (unknown origin) expressed in HEK293 cells co-expressing human UT/GFP10-tagged G-gamma assessed as activation of Galpha-q by BRET assay; type: cell-based
# T1 sequence (P50148 whole entry): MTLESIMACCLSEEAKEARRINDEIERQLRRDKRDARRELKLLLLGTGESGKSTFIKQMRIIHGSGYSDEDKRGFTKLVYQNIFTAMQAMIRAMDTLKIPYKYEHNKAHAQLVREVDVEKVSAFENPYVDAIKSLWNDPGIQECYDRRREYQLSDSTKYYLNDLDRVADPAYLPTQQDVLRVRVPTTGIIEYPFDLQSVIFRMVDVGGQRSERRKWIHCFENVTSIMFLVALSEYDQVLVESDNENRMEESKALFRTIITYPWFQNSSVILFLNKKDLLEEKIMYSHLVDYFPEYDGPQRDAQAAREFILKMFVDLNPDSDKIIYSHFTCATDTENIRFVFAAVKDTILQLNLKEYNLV
# [2] = Agonist activity at RLucII-tagged Galpha-13 (unknown origin) expressed in HEK293 cells co-expressing human UT/GFP10-tagged G-gamma assessed as activation of Galpha-13 by BRET assay; type: cell-based
# [3] = target: T2, Guanine nucleotide-binding protein G(q) subunit alpha (Homo sapiens) (UniProt P50148); test: Agonist activity at RLucII-tagged Galpha-q (unknown origin) expressed in HEK293 cells co-expressing human UT/GFP10-tagged G-gamma assessed as activation of Galpha-q at 10^-5 M by BRET assay relative to hUII; type: cell-based; settings: dose 1.0 10^-5M
# T2 sequence (whole entry): T1 sequence (P50148 whole entry)
# Beta-arrestin-1 [4] = target: T3, Beta-arrestin-1 (Homo sapiens, UniProt P49407); test: Agonist activity at RLucII/GFP10-tagged beta-arrestin-1 (unknown origin) expressed in HEK293 cells co-expressing human UT assessed as beta-arrestin recruitment at 10^-5 M by BRET assay relative to hUII; type: cell-based; settings: filed as agonist, dose 1.0 10^-5M
# [5] = Agonist activity at RLucII-tagged Galpha-i (unknown origin) expressed in HEK293 cells co-expressing human UT/GFP10-tagged G-gamma assessed as activation of Galpha-i by BRET assay; type: cell-based
# Aorta [6] = test: Ex vivo modulatory effect on hUII-induced contractile activity in Sprague-Dawley rat aortic ring (reference value: 8.37 +/- 0.08); type: functional, tissue-based
# Aorta [7] = test: Ex vivo modulatory effect on hUII-induced contractile activity in Sprague-Dawley rat aortic ring at 10^-6 M pretreated for 30 mins followed by hUII addition (reference value: 100 +/- 9 %); type: functional; settings: 0.5 h, dose 1 10^-6M
# Beta-arrestin-1 [8] = target: T3, Beta-arrestin-1; test: Agonist activity at RLucII/GFP10-tagged beta-arrestin-1 (unknown origin) recruitment expressed in HEK293 cells co-expressing human UT assessed as beta-arrestin recruitment by BRET assay; type: cell-based
# Aorta [9] = test: Ex vivo modulatory effect on URP-induced contractile activity in Sprague-Dawley rat aortic ring (reference value: 8.06 +/- 0.27); type: functional, tissue-based
# Aorta [10] = test: Ex vivo modulatory effect on URP-induced contractile activity in Sprague-Dawley rat aortic ring at 10^-6 M pretreated for 30 mins followed by URP addition (reference value: 100 +/- 8 %); type: functional; settings: 0.5 h, dose 1 10^-6M
# HEK293 [11] = test: Agonist activity at RLucII-tagged Galpha-13 (unknown origin) expressed in HEK293 cells co-expressing human UT/GFP10-tagged G-gamma assessed as activation of Galpha-13 at 10^-5 M by BRET assay relative to hUII; type: cell-based; settings: filed as agonist, dose 1.0 10^-5M
# HEK293 [12] = test: Agonist activity at RLucII-tagged Galpha-i (unknown origin) expressed in HEK293 cells co-expressing human UT/GFP10-tagged G-gamma assessed as activation of Galpha-i at 10^-5 M by BRET assay relative to hUII; type: cell-based; settings: dose 1.0 10^-5M
# HEK293 [13] = test: Antagonist activity at hUII-activated RLucII-tagged Galpha-q (unknown origin) expressed in HEK293 cells co-expressing human UT/GFP10-tagged G-gamma at 10^-6 M by BRET assay (reference value: 100 +/- 4 %); type: cell-based; settings: filed as antagonist, dose 1.0 10^-6M
# HEK293 [14] = test: Agonist activity at RLucII-tagged Galpha-i (unknown origin) expressed in HEK293 cells co-expressing human UT/GFP10-tagged G-gamma assessed as activation of Galpha-i at 10^-5 M by BRET assay; type: cell-based; settings: dose 1.0 10^-5M
# [15] = target: T2, Guanine nucleotide-binding protein G(q) subunit alpha (Homo sapiens); test: Agonist activity at RLucII-tagged Galpha-q (unknown origin) expressed in HEK293 cells co-expressing human UT/GFP10-tagged G-gamma assessed as activation of Galpha-q at 10^-5 M by BRET assay; type: cell-based; settings: dose 1.0 10^-5M
# HEK293 [16] = test: Antagonist activity at URP-activated RLucII-tagged Galpha-i (unknown origin) expressed in HEK293 cells co-expressing human UT/GFP10-tagged G-gamma at 10^-6 M by BRET assay (reference value: 100 +/- 7 %); type: cell-based; settings: filed as antagonist, dose 1.0 10^-6M
# [17] = Antagonist activity at URP-activated RLucII-tagged Galpha-i (unknown origin) expressed in HEK293 cells co-expressing human UT/GFP10-tagged G-gamma by BRET assay (reference value: 7.10 +/- 0.19); type: cell-based
# [18] = target: T1, Guanine nucleotide-binding protein G(q) subunit alpha; test: Antagonist activity at URP-activated RLucII-tagged Galpha-q (unknown origin) expressed in HEK293 cells co-expressing human UT/GFP10-tagged G-gamma by BRET assay (reference value: 7.33 +/- 0.10); type: cell-based
# [19] = Antagonist activity at hUII-activated RLucII-tagged Galpha-i (unknown origin) expressed in HEK293 cells co-expressing human UT/GFP10-tagged G-gamma by BRET assay (reference value: 7.41 +/- 0.15); type: cell-based
# [20] = target: T2, Guanine nucleotide-binding protein G(q) subunit alpha (Homo sapiens); test: Antagonist activity at URP-activated RLucII-tagged Galpha-q (unknown origin) expressed in HEK293 cells co-expressing human UT/GFP10-tagged G-gamma at 10^-6 M by BRET assay (reference value: 100 +/- 4 %); type: cell-based; settings: filed as antagonist, dose 1.0 10^-6M
# HEK293 [21] = test: Antagonist activity at hUII-activated RLucII-tagged Galpha-i (unknown origin) expressed in HEK293 cells co-expressing human UT/GFP10-tagged G-gamma at 10^-6 M by BRET assay (reference value: 100 +/- 5 %); type: cell-based; settings: filed as antagonist, dose 1.0 10^-6M
# [22] = target: T1, Guanine nucleotide-binding protein G(q) subunit alpha; test: Antagonist activity at hUII-activated RLucII-tagged Galpha-q (unknown origin) expressed in HEK293 cells co-expressing human UT/GFP10-tagged G-gamma by BRET assay (reference value: 8.26 +/- 0.09); type: cell-based
# Aorta [23] = test: Ex vivo modulatory effect on URP-induced contractile activity in Sprague-Dawley rat aortic ring at 10^-6 M pretreated for 30 mins followed by URP addition; type: functional, tissue-based; settings: dose 1.0 10^-6M
# Aorta [24] = test: Ex vivo modulatory effect on hUII-induced contractile activity in Sprague-Dawley rat aortic ring at 10^-6 M pretreated for 30 mins followed by hUII addition; type: functional, tissue-based; settings: dose 1.0 10^-6M
# T3 sequence (P49407 whole entry): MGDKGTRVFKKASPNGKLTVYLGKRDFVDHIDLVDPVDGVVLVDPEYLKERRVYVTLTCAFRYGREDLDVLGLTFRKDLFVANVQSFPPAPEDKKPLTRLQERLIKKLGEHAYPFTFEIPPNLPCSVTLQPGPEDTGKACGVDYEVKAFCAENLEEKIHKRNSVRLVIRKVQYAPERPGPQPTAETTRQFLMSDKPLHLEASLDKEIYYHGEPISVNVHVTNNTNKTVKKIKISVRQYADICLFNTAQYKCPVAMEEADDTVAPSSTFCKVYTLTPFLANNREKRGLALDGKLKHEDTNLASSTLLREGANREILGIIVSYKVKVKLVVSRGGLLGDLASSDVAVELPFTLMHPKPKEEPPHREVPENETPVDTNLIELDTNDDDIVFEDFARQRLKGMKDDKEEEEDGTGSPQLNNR
Structure (SMILES),EC50 [1] [nM],EC50 [2] [nM],Emax (Beta-arrestin-1 [4]) [%],EC50 [5] [nM],EC50 (Aorta [6]) [nM],Emax at 1 µM (Aorta [7]) [%],EC50 (Beta-arrestin-1 [8]) [nM],EC50 (Aorta [9]) [nM],Emax at 1 µM (Aorta [10]) [%],Emax (HEK293 [11]) [%],Emax (HEK293 [13]) [%],Activity [15],EC50 [18] [nM],Emax [20] [%],EC50 [22] [nM],Emax (HEK293 [12]; filed as agonist) [%],also measured
COc1ccc(/C=C/C2=NN(CCCCN)C(=O)N(Cc3ccc(-c4ccccc4)cc3)c3cc(C(=O)NCCCc4ccccc4)ccc32)cc1,> 10000,20.9,98,> 10000,0.741,252,1200,3.72,77,103,,,,,,,Emax ([3]; filed as agonist): 54%; Emax (HEK293 [12]): 18%
CC(C)[C@H](NC(=O)[C@@H]1CSSC[C@H](NC(=O)[C@H](CC(=O)O)NC(=O)[C@@H]2CCCN2C(=O)[C@@H](NC(=O)[C@@H](N)CCC(=O)O)[C@@H](C)O)C(=O)N[C@@H](Cc2ccccc2)C(=O)N[C@@H](Cc2c[nH]c3ccccc23)C(=O)N[C@@H](CCCCN)C(=O)N[C@@H](Cc2ccc(O)cc2)C(=O)N1)C(=O)O [UROTENSIN-II],13.8,16.2,,18.2,,,20.4,,,,,,,,,,
COc1ccc(/C=C/C2=NN(CCCCN)C(=O)N(Cc3ccc(-c4ccccc4)cc3)c3cc(C(=O)NCc4ccccc4)ccc32)cc1,,81.3,98,,0.661,85,9.33,8.13,27,122,90,inactive,43.7,79,13.2,,Activity (HEK293 [14]): inactive; Emax (HEK293 [16]): 63%; EC50 [17]: 148 nM; EC50 [19]: 11.7 nM; Emax (HEK293 [21]): 80%
NCCCCN1N=C(CCc2ccc(O)cc2)c2ccc(C(=O)NCCCc3ccccc3)cc2N(Cc2ccc(-c3ccccc3)cc2)C1=O,,21.9,165,> 10000,1.02,143,174,4.07,112,119,65,inactive,18.6,76,5.89,45,
NCCCCN1N=C(/C=C/c2ccc(O)cc2)c2ccc(C(=O)NCC(c3ccccc3)c3ccccc3)cc2N(Cc2ccc(-c3ccccc3)cc2)C1=O,,200,76,,5.5,77,95.5,44.7,56,198,83,inactive,25.1,103,6.92,,Activity (HEK293 [14]): inactive; Emax (HEK293 [16]): 89%; EC50 [17]: 102 nM; EC50 [19]: 53.7 nM; Emax (HEK293 [21]): 95%
CN(Cc1ccccc1)C(=O)c1ccc2c(c1)N(Cc1ccc(-c3ccccc3)cc1)C(=O)N(CCCCN)N=C2CCc1ccc(O)cc1,,302,194,,6.76,70,933,43.7,71,152,94,inactive,28.2,92,8.51,,Activity (HEK293 [14]): inactive; Emax (HEK293 [16]): 91%; EC50 [17]: 178 nM; EC50 [19]: 41.7 nM; Emax (HEK293 [21]): 89%
NCCCCN1N=C(CCc2ccc(O)cc2)c2ccc(C(=O)NCCOc3ccccc3)cc2N(Cc2ccc(-c3ccccc3)cc2)C1=O,,288,198,> 10000,6.17,197,1780,16.2,83,215,95,inactive,34.7,81,6.92,51,
CC(C)[C@H](NC(=O)[C@@H]1CSSC[C@H](NC(=O)[C@H](C)N)C(=O)N[C@@H](Cc2ccccc2)C(=O)N[C@@H](Cc2c[nH]c3ccccc23)C(=O)N[C@@H](CCCCN)C(=O)N[C@@H](Cc2ccc(O)cc2)C(=O)N1)C(=O)O,8.91,,,,,,,,,,,,,,,,Emax ([3]; filed as agonist): 101%
NCCCCN1N=C(/C=C/c2ccc(O)cc2)c2ccc(C(=O)NCc3ccccc3)cc2N(Cc2ccc(-c3ccccc3)cc2)C1=O,,10.5,275,> 10000,1.1,121,1230,13.5,58,115,85,inactive,17,111,7.08,,Emax (HEK293 [12]): 30%
COc1ccc(/C=C/C2=NN(CCCCN)C(=O)N(Cc3ccc(-c4ccccc4)cc3)c3cc(C(=O)NCCOc4ccccc4)ccc32)cc1,> 10000,45.7,78,> 10000,,,0.49,,,102,,,,,,50,Emax ([3]; filed as agonist): 52%; Activity (Aorta [23]): Active; Activity (Aorta [24]): Active
CN(Cc1ccccc1)C(=O)c1ccc2c(c1)N(Cc1ccc(-c3ccccc3)cc1)C(=O)N(CCCCN)N=C2/C=C/c1ccc(O)cc1,> 10000,178,82,589,0.955,61,117,3.31,120,129,,,,,,73,Emax [3]: 37%
NCCCCN1N=C(/C=C/c2ccc(O)cc2)c2ccc(C(=O)NCCCc3ccccc3)cc2N(Cc2ccc(-c3ccccc3)cc2)C1=O,> 10000,16.2,108,1170,14.5,123,851,1.55,161,104,,,,,,75,Emax [3]: 26%
